{"source": "paper PMC2174028", "about": "(The Journal of Cell Biology, 2002)", "molecules": {"B1": {"name": "sPSGL-1: recombinant soluble form of human PSGL-1 comprising the entire extracellular domain, expressed in CHO cells (protein, UniProt Q14242 18-320, looked up)", "extracellular domain": "LQLWDTWADEAEKALGPLLARDRRQATEYEYLDYDFLPETEPPEMLRNSTDTTPLTGPGTPESTTVEPAARRSTGLDAGGAVTELTTELANMGNLSTDSAAMEIQTTQPAATEAQTTQPVPTEAQTTPLAATEAQTTRLTATEAQTTPLAATEAQTTPPAATEAQTTQPTGLEAQTTAPAAMEAQTTAPAAMEAQTTPPAAMEAQTTQTTAMEAQTTAPEATEAQTTQPTATEAQTTPLAAMEALSTEPSATEALSMEPTTKRGLFIPFSVSSVTHKGIPMAASNLSVNYPVGAPDHISVKQC", "modifications": "extracellular domain"}}, "key": {"P-selectin [1]": {"system": "P-selectin", "settings": "ref Leppänen et al., 2000; cited from earlier work"}, "P-selectin [2]": {"system": "P-selectin", "format": "binding", "settings": "intermediate or high densities of P-selectin, as a function of wall shear stress"}}}
{"molecule": "CC(=O)N[C@H]1[C@H]([C@H](O)[C@H](O)CO)O[C@@](O[C@H]2[C@@H](O)[C@@H](CO)O[C@@H](O[C@@H]([C@H](O[C@@H]3O[C@@H](C)[C@@H](O)[C@@H](O)[C@@H]3O)[C@H](C=O)NC(C)=O)[C@H](O)CO)[C@@H]2O)(C(=O)O)C[C@@H]1O", "note": "[sLe^x, sialyl Lewis x]", "values": [{"measurement": "Affinity for P-selectin (in words)", "setting": "P-selectin [1]", "value": "very low affinity"}]}
{"molecule": "B1", "values": [{"measurement": "Initial tethering of ligand-coupled microspheres to P-selectin (in words)", "setting": "P-selectin [2]", "value": "tethered at identical rates"}]}
